{
  "source": "ChEMBL document CHEMBL1149022",
  "about": "“Antitumor agents, 85. Cicutoxin, an antileukemic principle from Cicuta maculata, and the cytotoxicity of the related derivatives” (1986)",
  "data": [
    {"tested_on": "P388", "assay": "Antileukemic activity against mouse P388 cells xenografted in mouse at 1 mg/kg dosed for 3 days relative to control", "format": "functional", "conditions": "not given", "units": {"T/C": "%"}, "values": [
      {"compound": "CCC[C@@H](O)/C=C/C=C/C=C/C#CC#CCCCO", "note": "[CICUTOXIN]", "T/C": 165}
    ]},
    {"tested_on": "KB", "assay": "Cytotoxicity against human KB cells", "format": "functional", "conditions": "read-out: ED50 (the source's name)", "units": {"EC50": "µg/mL"}, "values": [
      {"compound": "CCCC(/C=C/C=C/C=C/C#CC#CCCCOC(C)=O)OC(C)=O", "note": "(centres undefined)", "EC50": "> 4"},
      {"compound": "CCCC(O)/C=C/C=C/C=C/C#CC#CCCCOC(=O)c1ccccc1", "note": "(centres undefined)", "EC50": "> 4"},
      {"compound": "CCCC(/C=C/C=C/C=C/C#CC#CCCCOCOCCOC)OCOCCOC", "note": "(centres undefined)", "EC50": "> 4"},
      {"compound": "CCCC(=O)/C=C/C=C/C=C/C#CC#CCCCO", "EC50": "> 4"},
      {"compound": "CCC[C@@H](O)/C=C/C=C/C=C/C#CC#CCCCO", "note": "[CICUTOXIN]", "EC50": 2},
      {"compound": "CCCC(/C=C/C=C/C=C/C#CC#CCCCOCOCc1ccccc1)OCOCc1ccccc1", "note": "(centres undefined)", "EC50": "> 4"},
      {"compound": "CCCC(O)CCCCCCCCCCCCCO", "note": "(centres undefined)", "EC50": "> 4"}
    ]},
    {"tested_on": "P388", "assay": "Antileukemic activity against mouse P388 cells xenografted in mouse at 200 mg/kg dosed for 1 day relative to control", "format": "functional", "conditions": "not given", "units": {"T/C": "%"}, "values": [
      {"compound": "O=c1[nH]cc(F)c(=O)[nH]1", "note": "[FLUOROURACIL]", "T/C": 135}
    ]}
  ]
}
